Experimental data from ChEMBL document CHEMBL1629662, “Antimicrobial activity of prulifloxacin tested against a worldwide collection of gastroenteritis-producing pathogens, including those causing traveler's diarrhea” (2009).

What was measured:
[1] = test system: Salmonella enteritidis; experiment: Antibacterial activity against Salmonella enterica serovar Enteritidis assessed as percent susceptible isolates by broth microdilution method; type: functional, Salmonella enterica subsp. enterica serovar Enteritidis; conditions: pooled result: one value given for 5 cell lines, strains, targets or settings
[2] = test system: Escherichia coli; experiment: Antibacterial activity against Escherichia coli assessed as percent susceptible isolates by broth microdilution method; type: functional
[3] = test system: Aeromonas veronii; experiment: Antibacterial activity against Aeromonas veronii by broth microdilution method; type: functional
[4] = test system: Vibrio cholerae; experiment: Antibacterial activity against Vibrio cholerae assessed as percent resistant isolates by broth microdilution method; type: functional
[5] = test system: Aeromonas sobria; experiment: Antibacterial activity against Aeromonas sobria assessed as percent susceptible isolates by broth microdilution method; type: functional
[6] = test system: Plesiomonas shigelloides; experiment: Antibacterial activity against Plesiomonas shigelloides assessed as percent resistant isolates by broth microdilution method; type: functional
[7] = test system: Shigella sonnei; experiment: Antibacterial activity against Shigella sonnei by broth microdilution method; type: functional
[8] = test system: Vibrio sp.; experiment: Antibacterial activity against Vibrio sp. assessed as percent resistant isolates by broth microdilution method; type: functional
[9] = test system: Yersinia pseudotuberculosis; experiment: Antibacterial activity against Yersinia pseudotuberculosis by broth microdilution method; type: functional
[10] = test system: Aeromonas hydrophila; experiment: Antibacterial activity against Aeromonas hydrophila by broth microdilution method; type: functional
[11] = test system: Vibrio parahaemolyticus; experiment: Antibacterial activity against Vibrio parahaemolyticus assessed as percent resistant isolates by broth microdilution method; type: functional
[12] = test system: Aeromonas caviae; experiment: Antibacterial activity against Aeromonas caviae by broth microdilution method; type: functional
[13] = test system: Vibrio sp.; experiment: Antibacterial activity against Vibrio sp. by broth microdilution method; type: functional
[14] = test system: Campylobacter jejuni; experiment: Antibacterial activity against Campylobacter jejuni by broth microdilution method; type: functional
[15] = test system: Aeromonas sobria; experiment: Antibacterial activity against Aeromonas sobria by broth microdilution method; type: functional
[16] = test system: Vibrio cholerae; experiment: Antibacterial activity against Vibrio cholerae by broth microdilution method; type: functional
[17] = test system: Vibrio fluvialis; experiment: Antibacterial activity against Vibrio fluvialis assessed as percent susceptible isolates by broth microdilution method; type: functional
[18] = test system: Yersinia enterocolitica; experiment: Antibacterial activity against Yersinia enterocolitica assessed as percent resistant isolates by broth microdilution method; type: functional
[19] = test system: Salmonella enteritidis; experiment: Antibacterial activity against Salmonella enterica serovar Enteritidis by broth microdilution method; type: functional, Salmonella enterica subsp. enterica serovar Enteritidis
[20] = test system: Escherichia coli; experiment: Antibacterial activity against Escherichia coli by broth microdilution method; type: functional
[21] = test system: Aeromonas hydrophila; experiment: Antibacterial activity against Aeromonas hydrophila assessed as percent resistant isolates by broth microdilution method; type: functional
[22] = test system: Salmonella typhimurium; experiment: Antibacterial activity against Salmonella enterica serovar Typhimurium assessed as percent resistant isolates by broth microdilution method; type: functional, Salmonella enterica subsp. enterica serovar Typhimurium; conditions: pooled result: one value given for 8 cell lines, strains, targets or settings
[23] = test system: Escherichia coli; experiment: Antibacterial activity against Escherichia coli assessed as percent resistant isolates by broth microdilution method; type: functional
[24] = test system: Plesiomonas shigelloides; experiment: Antibacterial activity against Plesiomonas shigelloides by broth microdilution method; type: functional
[25] = test system: Campylobacter jejuni; experiment: Antibacterial activity against Campylobacter jejuni assessed as percent resistant isolates by broth microdilution method; type: functional; conditions: pooled result: one value given for 2 cell lines, strains, targets or settings
[26] = test system: Salmonella typhimurium; experiment: Antibacterial activity against Salmonella enterica serovar Typhimurium by broth microdilution method; type: functional, Salmonella enterica subsp. enterica serovar Typhimurium
[27] = test system: Aeromonas hydrophila; experiment: Antibacterial activity against Aeromonas hydrophila assessed as percent susceptible isolates by broth microdilution method; type: functional
[28] = test system: Aeromonas veronii; experiment: Antibacterial activity against Aeromonas veronii assessed as percent susceptible isolates by broth microdilution method; type: functional
[29] = test system: Shigella boydii; experiment: Antibacterial activity against Shigella boydii assessed as percent susceptible isolates by broth microdilution method; type: functional; conditions: pooled result: one value given for 3 cell lines, strains, targets or settings
[30] = test system: Campylobacter jejuni; experiment: Antibacterial activity against Campylobacter jejuni assessed as percent susceptible isolates by broth microdilution method; type: functional; conditions: pooled result: one value given for 2 cell lines, strains, targets or settings
[31] = test system: Aeromonas caviae; experiment: Antibacterial activity against Aeromonas caviae assessed as percent resistant isolates by broth microdilution method; type: functional
[32] = test system: Aeromonas veronii; experiment: Antibacterial activity against Aeromonas veronii assessed as percent resistant isolates by broth microdilution method; type: functional
[33] = test system: Vibrio parahaemolyticus; experiment: Antibacterial activity against Vibrio parahaemolyticus by broth microdilution method; type: functional
[34] = test system: Shigella sonnei; experiment: Antibacterial activity against Shigella sonnei assessed as percent resistant isolates by broth microdilution method; type: functional; conditions: pooled result: one value given for 4 cell lines, strains, targets or settings
[35] = test system: Vibrio fluvialis; experiment: Antibacterial activity against Vibrio fluvialis assessed as percent resistant isolates by broth microdilution method; type: functional
[36] = test system: Shigella boydii; experiment: Antibacterial activity against Shigella boydii by broth microdilution method; type: functional
[37] = test system: Yersinia enterocolitica; experiment: Antibacterial activity against Yersinia enterocolitica by broth microdilution method; type: functional
[38] = test system: Vibrio alginolyticus; experiment: Antibacterial activity against Vibrio alginolyticus by broth microdilution method; type: functional
[39] = test system: Vibrio vulnificus; experiment: Antibacterial activity against Vibrio vulnificus by broth microdilution method; type: functional
[40] = test system: Vibrio sp.; experiment: Antibacterial activity against Vibrio sp. assessed as percent susceptible isolates by broth microdilution method; type: functional
[41] = test system: Aeromonas caviae; experiment: Antibacterial activity against Aeromonas caviae assessed as percent susceptible isolates by broth microdilution method; type: functional
[42] = test system: Vibrio vulnificus; experiment: Antibacterial activity against Vibrio vulnificus assessed as percent resistant isolates by broth microdilution method; type: functional
[43] = test system: Shigella dysenteriae; experiment: Antibacterial activity against Shigella dysenteriae by broth microdilution method; type: functional
[44] = test system: Vibrio alginolyticus; experiment: Antibacterial activity against Vibrio alginolyticus assessed as percent resistant isolates by broth microdilution method; type: functional
[45] = test system: Yersinia enterocolitica; experiment: Antibacterial activity against Yersinia enterocolitica assessed as percent susceptible isolates by broth microdilution method; type: functional
[46] = test system: Campylobacter coli; experiment: Antibacterial activity against Campylobacter coli by broth microdilution method; type: functional
[47] = test system: Vibrio parahaemolyticus; experiment: Antibacterial activity against Vibrio parahaemolyticus assessed as percent susceptible isolates by broth microdilution method; type: functional
[48] = test system: Vibrio alginolyticus; experiment: Antibacterial activity against Vibrio alginolyticus assessed as percent susceptible isolates by broth microdilution method; type: functional
[49] = test system: Shigella flexneri; experiment: Antibacterial activity against Shigella flexneri by broth microdilution method; type: functional
[50] = test system: Aeromonas sobria; experiment: Antibacterial activity against Aeromonas sobria assessed as percent resistant isolates by broth microdilution method; type: functional
[51] = test system: Vibrio vulnificus; experiment: Antibacterial activity against Vibrio vulnificus assessed as percent susceptible isolates by broth microdilution method; type: functional
[52] = test system: Vibrio cholerae; experiment: Antibacterial activity against Vibrio cholerae assessed as percent susceptible isolates by broth microdilution method; type: functional
[53] = test system: Vibrio fluvialis; experiment: Antibacterial activity against Vibrio fluvialis by broth microdilution method; type: functional
[54] = test system: Plesiomonas shigelloides; experiment: Antibacterial activity against Plesiomonas shigelloides assessed as percent susceptible isolates by broth microdilution method; type: functional

`C[C@H]1c2cccc(O)c2C(=O)C2=C(O)[C@]3(O)C(=O)C(C(N)=O)=C(O)[C@@H](N(C)C)[C@@H]3[C@@H](O)[C@@H]21.O` [DOXYCYCLINE] showed an Activity [1] of 82.2%, an Activity [2] of 76% and an MIC50 [3] of 0.5 µg/mL. The MIC90 [3] was 1 µg/mL, the Activity [4] was 0% and the Activity [5] was 100%. For the same compound, the Activity [6] was 0%, the MIC50 [7] was 16 µg/mL and the MIC90 [7] was 32 µg/mL. It also gave an Activity [8] of 0%, an MIC50 [9] of 1 µg/mL and an MIC90 [9] of 2 µg/mL. It also gave an MIC50 [10] of 0.5 µg/mL, an MIC90 [10] of 1 µg/mL and an Activity [11] of 0%. For the same compound, the MIC50 [12] was 0.5 µg/mL, the MIC90 [12] was 1 µg/mL and the MIC [13] was ≤ 0.12 µg/mL. For the same compound, the MIC50 [13] was ≤ 0.12 µg/mL, the MIC90 [13] was ≤ 0.12 µg/mL and the MIC [14] was ≤ 0.12 µg/mL. The MIC50 [14] was ≤ 0.12 µg/mL, the MIC90 [14] was 16 µg/mL and the MIC50 [15] was 0.5 µg/mL. For the same compound, the MIC90 [15] was 1 µg/mL, the MIC [16] was ≤ 0.12 µg/mL and the MIC50 [16] was ≤ 0.12 µg/mL. The MIC90 [16] was ≤ 0.12 µg/mL, the Activity [17] was 100% and the Activity [18] was 4.3%. For the same compound, the MIC50 [19] was 2 µg/mL, the MIC90 [19] was 32 µg/mL and the MIC50 [20] was 2 µg/mL. The MIC90 [20] was 16 µg/mL, the Activity [21] was 0% and the Activity [22] was 13.9%. The Activity [23] was 16%, the MIC [24] was ≤ 0.12 µg/mL and the MIC50 [24] was ≤ 0.12 µg/mL. For the same compound, the Activity [25] was 33.9%, the MIC50 [26] was 2 µg/mL and the MIC90 [26] was 32 µg/mL. The Activity [27] was 100%, the Activity [28] was 100% and the Activity [29] was 34.7%. The Activity [30] was 59.6%, the Activity [31] was 0% and the Activity [32] was 0%. The MIC [33] was ≤ 0.12 µg/mL, the MIC50 [33] was ≤ 0.12 µg/mL and the MIC90 [33] was ≤ 0.12 µg/mL. For the same compound, the Activity [34] was 52.5%, the Activity [35] was 0% and the MIC50 [36] was 16 µg/mL. It also gave an MIC90 [36] of 32 µg/mL, an MIC50 [37] of 1 µg/mL and an MIC90 [37] of 2 µg/mL. For the same compound, the MIC [38] was ≤ 0.12 µg/mL, the MIC50 [38] was ≤ 0.12 µg/mL and the MIC90 [38] was ≤ 0.12 µg/mL. The MIC [39] was ≤ 0.12 µg/mL, the MIC50 [39] was ≤ 0.12 µg/mL and the MIC90 [39] was ≤ 0.12 µg/mL. The Activity [40] was 100%, the Activity [41] was 100% and the Activity [42] was 0%. The MIC50 [43] was 16 µg/mL, the MIC90 [43] was 32 µg/mL and the Activity [44] was 0%. For the same compound, the Activity [45] was 95.7%, the MIC [46] was ≤ 0.12 µg/mL and the MIC50 [46] was ≤ 0.12 µg/mL. For the same compound, the MIC90 [46] was 16 µg/mL, the Activity [47] was 100% and the Activity [48] was 100%. It also gave an MIC50 [49] of 16 µg/mL, an MIC90 [49] of 32 µg/mL and an Activity [50] of 0%. For the same compound, the Activity [51] was 100%, the Activity [52] was 100% and the MIC [53] was ≤ 0.12 µg/mL. The MIC50 [53] was ≤ 0.12 µg/mL, the MIC90 [53] was ≤ 0.12 µg/mL and the Activity [54] was 100%.
